IC50 data for three molecules are collected here from ChEMBL document CHEMBL1158935, “New Polyhydroxy Sterols, Dysidamides, and a Dideoxyhexose from the Sponge Dysidea herbacea” (J Nat Prod, 1991).

Molecules are shown by their SMILES. In brackets after ≈: the same amount, converted by molar mass.

This assay concerns P388. Briefly: Cytotoxicity against mouse P388 cells. Format: functional, cell-based.
Broadly, the IC50 is the concentration that inhibits the measured activity by half. A higher IC50 goes with lower potency. `C=C(CC[C@@H](C)[C@H]1CC[C@H]2C3=C[C@@H](OC(C)=O)[C@@]4(O)C[C@@H](OC(C)=O)CC[C@]4(C)[C@@]3(O)[C@H](OC(C)=O)C[C@]12C)C(C)C` displayed an IC50 of 6.5 µg/mL (≈ 11 µM).
Molecule `C=C(CC[C@@H](C)[C@H]1CC[C@H]2C3=C[C@@H](OC(C)=O)[C@@]4(O)C[C@@H](OC(C)=O)CC[C@]4(C)[C@H]3CC[C@]12C)C(C)C` came in with an IC50 of 1.46 µg/mL (≈ 2.84 µM). Against the preceding molecule, the IC50 is about 4.5-fold lower.
For the molecule `C=C(CC[C@@H](C)[C@H]1CC[C@H]2C3=C[C@H](OC(C)=O)[C@@]4(O)C[C@@H](OC(C)=O)CC[C@]4(C)[C@@]3(O)[C@H](OC(C)=O)C[C@]12C)C(C)C`, 4.78 µg/mL (≈ 8.12 µM) corresponded to half-maximal inhibition (IC50).
